Measured values as given in patent US11304918B2, “Methods and compositions for the treatment of diverticulosis” (Emmaus Medical, Inc., priority 2011, dated 2022).

System: diverticula
Assay: Number of diverticula observed by colonoscopy in a person with diverticulosis ingesting L-glutamine
Type: in vivo
Conditions: one person, 30 g of L-glutamine per day as an aqueous solution, ingested, after twelve months
Text: Compositions according to the present invention may be used to treat diverticulosis as determined by a number of different methods to image colon pouches. Nonlimiting examples of imaging methods include: colonoscopy; computed tomography; and, x-ray based on a barium enema. […] The person ingested 30 g of L-glutamine per day as an aqueous solution. After twelve months of L-glutamine administration, the number of diverticula had been reduced by ninety (90) percent.

NC(=O)CC[C@H](N)C(=O)O [L-glutamine]
reduction of the number of diverticula: 90%
